Test results as given in publication PMC12679610, “Impact of supersaturation on growth, critical radius, and size in neomycin nanoparticle crystallization using anti-solvent and CTAB” (RSC Advances, 2025).

What was measured:
[1] = Induction time measurement by in situ turbidimeter (antisolvent crystallization); format: physicochemical; conditions: CTAB 0.6 g kg^−1, 25 °C
Method: In this section, the method for the synthesis of neomycin nanoparticles is explained in detail. First, an exact amount of neomycin powder (purity ≥ 95%) was weighed using a digital analytical balance (accuracy: […]) based on the desired equilibrium concentration. The weighed neomycin was then added to 10 g of double-distilled water (25 °C). To ensure complete dissolution, the mixture was homogenized using a magnetic stirrer at controlled speeds of 300, 350, 400, and 450 rpm for 20 minutes. This range of stirring speeds was selected to investigate the effect of shear force on solution homogeneity. After confirming the homogeneity of the neomycin solution, a predetermined amount of CTAB surfactant with a concentration established from prior studies was added to the beaker. To achieve optimal mixing, the stirring system was activated at a constant speed between 300 and 450 rpm, and the mixing process continued until equilibrium was reached. The solution temperature was continuously monitored using a calibrated digital thermometer (±0.1 °C). A turbidity sensor was installed 2 cm from the crystallizer wall to measure changes in turbidity. Pure acetone (HPLC grade) was added dropwise (0.02 mL per drop) at 5-minute intervals. The first signs of physical change (e.g., localized cloudiness) were recorded as the initial saturation point. Acetone addition continued until stable turbidity (supersaturation) was achieved under isothermal conditions (25 °C). The induction time (the interval between initial saturation and supersaturation), as clearly depicted in Fig. 1, Section C (the induction time segment of steps 1 to 4), was measure using a synchronized turbidimeter and reaction timer data. To ensure reproducibility, the entire process was repeated in four independent trials under controlled conditions (constant temperature, humidity, and lighting).
Induction time represents a key parameter in crystallization processes, being predominantly influenced by three factors of supersaturation, temperature, and agitation rate.[29,32] This parameter characterizes the time interval between the onset of initial physical changes (saturated state) and the complete formation of a turbid phase (supersaturated state) within the system. Investigations indicate that both the optimal agitation speed and the application of dynamic shock have a significant influence on the system's supersaturation level.[29,33,35,36] A sudden increase in agitation rate initially induces localized supersaturation reduction through turbulence generation at the interface between unstable and metastable zones. […] CTAB modulates the process by reducing surface energy and stabilizing subcritical clusters, which shortens the nucleation time and broadened the metastable zone. Agitation dynamics initially cause a temporary decrease in localized supersaturation (dynamic shock), followed by a stabilization phase that enables controlled crystal growth.
Methodologically, induction time was measured using both visual observation and in situ turbidimetry.

[2] = Interfacial energy from ln tind versus 1/T^3(ln S)^2 plot; format: physicochemical; conditions: CTAB 0.6 g kg^−1, 25 °C
Method: Interfacial energy at the solid–liquid interface, can typically be regarded as an intrinsic property of the system.[100] It is indeed a key parameter strongly influenced by the solvent composition and the presence of surfactants such as CTAB.[29,101] In this study, the effect of CTAB at a constant concentration of 0.6 g kg^−1 on the interfacial energy of the crystallization system of neomycin at various concentrations (20, 30, 40, and 50 g kg^−1) was investigated at a temperature of 25 °C. Key system parameters included the density of neomycin (ρ = 640 kg m^−3), measured using the volume displacement method; the shape factor (f = 0.058)[16,29] and the molar mass (M = 908.88 g mol^−1). […] At various concentrations of neomycin (20, 30, 40, and 50 g kg^−1), a comparison was made between the system stabilized with CTAB and previous studies that utilized PVP as a stabilizer.[29] […] This distinction can be attributed to a significant reduction in surface energy in the presence of CTAB, as well as distinct molecular interactions between neomycin and the cationic surfactant, which subsequently influenced solubility and nucleation behavior.[102] […] The proposed mechanism for this observation includes the effective adsorption of CTAB onto nanoparticle surfaces, alterations in the local solubility of neomycin, and the formation of stable electrical double layers at the interface.[103] Furthermore, increased agitation enhanced mass transfer, improved surfactant distribution, and promoted the formation of stable nuclei, ultimately leading to a significant reduction in surface energy and effective suppression of nanoparticle aggregation.[104]

## NC[C@@H]1O[C@H](O[C@H]2[C@@H](O)[C@H](O[C@@H]3[C@@H](O)[C@H](N)C[C@H](N)[C@H]3O[C@H]3O[C@H](CN)[C@@H](O)[C@H](O)[C@H]3N)O[C@@H]2CO)[C@H](N)[C@@H](O)[C@@H]1O.O=S(=O)(O)O [neomycin sulfate]
[1]; 300 rpm, initial neomycin 20 g kg^−1, S 1.18
  Induction time: 112 s
[1]; 300 rpm, initial neomycin 20 g kg^−1, S 1.33
  Induction time: 91 s
[1]; 300 rpm, initial neomycin 20 g kg^−1, S 1.45
  Induction time: 86 s
[1]; 300 rpm, initial neomycin 20 g kg^−1, S 1.66
  Induction time: 79 s
[1]; 350 rpm, initial neomycin 30 g kg^−1, S 1.2
  Induction time: 101 s
[1]; 350 rpm, initial neomycin 30 g kg^−1, S 1.25
  Induction time: 94 s
[1]; 350 rpm, initial neomycin 30 g kg^−1, S 1.28
  Induction time: 89 s
[1]; 350 rpm, initial neomycin 30 g kg^−1, S 1.43
  Induction time: 81 s
[1]; 350 rpm, initial neomycin 30 g kg^−1, S 1.67
  Induction time: 74 s
[1]; 400 rpm, initial neomycin 40 g kg^−1, S 1.29
  Induction time: 99 s
[1]; 400 rpm, initial neomycin 40 g kg^−1, S 1.379
  Induction time: 96 s
[1]; 400 rpm, initial neomycin 40 g kg^−1, S 1.48
  Induction time: 83 s
[1]; 400 rpm, initial neomycin 40 g kg^−1, S 1.66
  Induction time: 76 s
[1]; 400 rpm, initial neomycin 40 g kg^−1, S 1.9
  Induction time: 72 s
[1]; 450 rpm, initial neomycin 50 g kg^−1, S 1.351
  Induction time: 90 s
[1]; 450 rpm, initial neomycin 50 g kg^−1, S 1.408
  Induction time: 84 s
[1]; 450 rpm, initial neomycin 50 g kg^−1, S 1.47
  Induction time: 77 s
[1]; 450 rpm, initial neomycin 50 g kg^−1, S 1.666
  Induction time: 70 s
[1]; 450 rpm, initial neomycin 50 g kg^−1, S 1.785
  Induction time: 64 s
[2]; initial neomycin 20 g kg solvent^−1
  Interfacial energy this work: 1.33 mJ m^−2
[2]; initial neomycin 30 g kg solvent^−1
  Interfacial energy this work: 1.41 mJ m^−2
[2]; initial neomycin 40 g kg solvent^−1
  Interfacial energy this work: 1.9 mJ m^−2
[2]; initial neomycin 50 g kg solvent^−1
  Interfacial energy this work: 2.14 mJ m^−2
